Data on eleven molecules can be found in ChEMBL document CHEMBL3046298, “Synthesis and metal ion binding activity of methyl 12-amino-13-nitro-7-oxo dehydrodeisopropylabietate derivatives” (Med Chem Res, 2012).

Data set [1] is described as follows: Metal chelating activity of the compound assessed as formation of iron complex by fluorescence quenching assay. Format: physicochemical.
Data set [2] can be described thus: Metal chelating activity of the compound assessed as formation of copper complex by fluorescence quenching assay. Format: physicochemical.

`COC(=O)[C@]1(C)CCC[C@]2(C)c3cc(Nc4ccc(OC)cc4)c([N+](=O)[O-])cc3C(=O)C[C@@H]12`: the Ka stood at 165 L/mol in data set [1] and 89.2 L/mol in data set [2].
`COC(=O)[C@]1(C)CCC[C@]2(C)c3cc(Nc4ccc(C)cc4)c([N+](=O)[O-])cc3C(=O)C[C@@H]12`: the Ka in data set [1] turned out to be 122.7 L/mol; in data set [2] it was 60.7 L/mol.
On the same counts, the results for `COC(=O)[C@]1(C)CCC[C@]2(C)c3cc(Nc4ccccc4)c([N+](=O)[O-])cc3C(=O)C[C@@H]12` are 106.9 L/mol and 60.7 L/mol.
On to `COC(=O)[C@]1(C)CCC[C@]2(C)c3cc(NCCN)c([N+](=O)[O-])cc3C(=O)C[C@@H]12`, for which the Ka in data set [1] worked out at 305.9 L/mol; in data set [2], 97.6 L/mol.
For `COC(=O)[C@]1(C)CCC[C@]2(C)c3cc(NCCO)c([N+](=O)[O-])cc3C(=O)C[C@@H]12`, the results for the Ka in data set [1] and in data set [2] were 108 L/mol and 70.3 L/mol, respectively.
On the same counts, the results for `COC(=O)[C@]1(C)CCC[C@]2(C)c3cc(NC(C)(C)C)c([N+](=O)[O-])cc3C(=O)C[C@@H]12` are 103.6 L/mol and 175.6 L/mol.
On to `CCCCNc1cc2c(cc1[N+](=O)[O-])C(=O)C[C@H]1[C@](C)(C(=O)OC)CCC[C@]21C`, for which the figures for the Ka in data set [1] and in data set [2] were 181.7 L/mol and 137.2 L/mol, respectively.
As for `COC(=O)[C@]1(C)CCC[C@]2(C)c3cc(NC(C)C)c([N+](=O)[O-])cc3C(=O)C[C@@H]12`, the Ka is given as 168.3 L/mol in data set [1] and 102.9 L/mol in data set [2].
For `CCCNc1cc2c(cc1[N+](=O)[O-])C(=O)C[C@H]1[C@](C)(C(=O)OC)CCC[C@]21C`, the Ka worked out at 135.7 L/mol in data set [1] and 61.7 L/mol in data set [2].
On to `CCNc1cc2c(cc1[N+](=O)[O-])C(=O)C[C@H]1[C@](C)(C(=O)OC)CCC[C@]21C`, for which the Ka in data set [1] is 138.3 L/mol; in data set [2], 81.3 L/mol.
On the same counts, the results for `CNc1cc2c(cc1[N+](=O)[O-])C(=O)C[C@H]1[C@](C)(C(=O)OC)CCC[C@]21C` are 186 L/mol and 107 L/mol.
